Test results as given in BindingDB's records for doi:10.1021/jm061299k (Bayer Healthcare Pharmaceuticals, 2007).

Each molecule was assayed against Peroxisome proliferator-activated receptor gamma (Mus musculus) (UniProt P37238) (assay: PPARgamma activity was assessed by the cell-based insulin receptor binding assay (IRBA) in mouse 3T3-L1 cells, measuring the increase in the number of insulin receptors). Conditions: not given.
In the case of `COc1cc(-c2nc(C)c(C(=O)N(C)C)s2)ccc1OCCCOc1ccc2c(c1)CC[C@H]2CC(=O)O` [2-[(1S)-5-(3-{4-[5-(dimethylcarbamoyl)-4-methyl-1,3-thiazol-2-yl]-2-methoxyphenoxy}propoxy)-2,3-dihydro-1H-inden-1-yl]acetic acid], the EC50 is reported as 312 nM. Molecule `CCCc1cc(-c2nc(C)c(C(=O)N(C)C)s2)ccc1OCCCOc1ccc2c(c1)CC[C@H]2CC(=O)O` [2-[(1S)-5-(3-{4-[5-(dimethylcarbamoyl)-4-methyl-1,3-thiazol-2-yl]-2-propylphenoxy}propoxy)-2,3-dihydro-1H-inden-1-yl]acetic acid] has an EC50 of 20 nM. `O=C(O)C[C@@H]1CCc2cc(OCCCOc3ccc4cc[nH]c4c3)ccc21` [2-[(1S)-5-[3-(1H-indol-6-yloxy)propoxy]-2,3-dihydro-1H-inden-1-yl]acetic acid] showed an EC50 of over 10000 nM. `Cc1ccc(OCCCOc2ccc3c(c2)CC[C@H]3CC(=O)O)cc1C` [2-[(1S)-5-[3-(3,4-dimethylphenoxy)propoxy]-2,3-dihydro-1H-inden-1-yl]acetic acid] showed an EC50 of over 10000 nM. `CCCc1c(OCCCOc2ccc3c(c2)CC[C@H]3CC(=O)O)ccc2c1ccn2C` [2-[(1S)-5-{3-[(1-methyl-4-propyl-1H-indol-5-yl)oxy]propoxy}-2,3-dihydro-1H-inden-1-yl]acetic acid] showed an EC50 of over 10000 nM. `O=C(O)C[C@@H]1CCc2cc(OCCCOc3ccc4ncoc4c3)ccc21` [2-[(1S)-5-[3-(1,3-benzoxazol-6-yloxy)propoxy]-2,3-dihydro-1H-inden-1-yl]acetic acid] showed an EC50 of over 10000 nM. `O=C(O)C[C@@H]1CCc2cc(OCCCOc3ccccc3)ccc21` [2-[(1S)-5-(3-phenoxypropoxy)-2,3-dihydro-1H-inden-1-yl]acetic acid] showed an EC50 of over 10000 nM. `O=C(O)C[C@@H]1CCc2cc(OCCCOc3ccc4cnoc4c3)ccc21` [2-[(1S)-5-[3-(1,2-benzoxazol-6-yloxy)propoxy]-2,3-dihydro-1H-inden-1-yl]acetic acid] gave an EC50 of over 10000 nM.

Each molecule was assayed against T1, Peroxisome proliferator-activated receptor alpha (Homo sapiens, UniProt Q07869) (assay: PPAR FRET Assay). Conditions: 25 °C.
T1 sequence (Q07869 whole entry): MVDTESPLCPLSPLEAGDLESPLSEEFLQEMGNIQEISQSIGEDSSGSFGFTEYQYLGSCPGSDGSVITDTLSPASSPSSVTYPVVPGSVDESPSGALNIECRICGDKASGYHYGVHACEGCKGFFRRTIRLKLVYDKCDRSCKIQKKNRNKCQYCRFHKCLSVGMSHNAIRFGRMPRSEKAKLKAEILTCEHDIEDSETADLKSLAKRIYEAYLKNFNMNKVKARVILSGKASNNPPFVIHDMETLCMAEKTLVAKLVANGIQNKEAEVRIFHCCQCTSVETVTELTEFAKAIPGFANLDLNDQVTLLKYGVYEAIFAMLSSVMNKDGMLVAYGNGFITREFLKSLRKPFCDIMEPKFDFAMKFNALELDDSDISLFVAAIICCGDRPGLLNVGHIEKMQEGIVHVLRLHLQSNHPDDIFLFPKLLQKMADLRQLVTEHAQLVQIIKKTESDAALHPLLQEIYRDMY
Experimental: (§1) Activity was assessed by measuring the human PPAR ligand binding domain with the co-activator protein. Europium labeled anti-GST antibody, streptavidin-labeled APC, biotin-labeled co-activator protein, and PPAR-GST were incubated at room temperature in buffer in the presence or absence of test compound.
Molecule `CCCc1cc(-c2nc3c(s2)CCCO3)ccc1OCCCOc1ccc2c(c1)CC[C@H]2CC(=O)O` [2-[(1S)-5-[3-(2-propyl-4-{5H,6H,7H-pyrano[2,3-d][1,3]thiazol-2-yl}phenoxy)propoxy]-2,3-dihydro-1H-inden-1-yl]acetic acid] has an EC50 of 101 nM.

Each molecule was assayed against T2, Peroxisome proliferator-activated receptor delta (Homo sapiens, UniProt Q03181) (assay: PPAR FRET Assay). Conditions: 25 °C.
T2 sequence (Q03181 whole entry): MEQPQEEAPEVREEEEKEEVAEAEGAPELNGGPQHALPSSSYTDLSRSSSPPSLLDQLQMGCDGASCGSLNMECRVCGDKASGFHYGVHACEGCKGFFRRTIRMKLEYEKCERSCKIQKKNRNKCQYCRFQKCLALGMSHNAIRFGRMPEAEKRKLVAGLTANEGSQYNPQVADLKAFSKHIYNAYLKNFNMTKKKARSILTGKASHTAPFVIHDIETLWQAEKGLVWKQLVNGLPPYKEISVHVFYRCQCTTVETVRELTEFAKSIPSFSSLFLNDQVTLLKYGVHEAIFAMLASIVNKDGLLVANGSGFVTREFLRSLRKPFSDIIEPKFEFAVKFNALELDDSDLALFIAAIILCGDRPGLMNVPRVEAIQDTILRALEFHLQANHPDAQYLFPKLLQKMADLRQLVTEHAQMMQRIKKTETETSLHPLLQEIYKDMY
Experimental: as §1
In the case of `CCCc1cc(-c2nc3c(s2)CCCO3)ccc1OCCCOc1ccc2c(c1)CC[C@H]2CC(=O)O` [2-[(1S)-5-[3-(2-propyl-4-{5H,6H,7H-pyrano[2,3-d][1,3]thiazol-2-yl}phenoxy)propoxy]-2,3-dihydro-1H-inden-1-yl]acetic acid], the EC50 is reported as 4 nM.
